Reference: US20050043300A1, “Piperazine derivatives” (priority 2003, published 2005)

Each compound was assayed against interaction of gp120 with CD4 (Human immunodeficiency virus type 1 group M subtype B, UniProt P04578) (assay: gp120/soluble CD4 enzyme linked immunosorbent assay (ELISA)). Settings: soluble CD4 conjugated to horseradish peroxidase, absorbance at 492 nm, read-out: IC50, inhibition of interaction of gp120 with soluble CD4.
Assay type: binding
Method: Maxisorp plates (Nunc) are coated with 2 μg/well of anti-gp120 antibody (D7324). 100 μl of gp120 (dilution pre-determined by titration) is added to each well and incubated for 90 minutes at room temperature. The sample is removed and the wells are washed with PBS (phosphate buffered saline)+0.01% TWEEN® (polyethylene glycol sorbitan monolaurate). 50 μl/well of compound is added followed by 50 μl (0.1 μg) of soluble CD4 conjugated to horseradish peroxidase (Autogen Bioclear). The plate is incubated for 90 minutes at room temperature before the wells are washed again. The substrate OPD (o-phenylenediamine, Sigma) is added at a concentration of 0.5 mg/ml and the plate incubated in the dark at room temperature for 3 minutes before 3M HCl is added to stop the reaction. Compounds that inhibit the interaction of gp120 with soluble CD4 will give rise to a reduced absorbance at 492 nm.

Cc1n[nH]c2cccc(O[C@@H](C)C(=O)N3CCN(C(=O)c4ccccc4)C[C@H]3C)c12 [Example 12] and C[C@H](Oc1cccc2ncccc12)C(=O)N1CCN(C(=O)c2ccccc2)C[C@H]1C [Example 1, (2S)-1-[(2R)-4-Benzoyl-2-methyl-piperazin-1-yl]-2-(quinolin-5-yloxy)-prooan-1-one] are within 1.5-fold of each other in IC50: 750 nM for the first, 920 nM for the second.

CNC(=O)c1ccc(O[C@@H](C)C(=O)N2CCN(C(=O)c3ccccc3)C[C@H]2C)c(OC)c1 [Example 11] showed an IC50 of 1000 nM.

The compounds below were run on HIV-1 fusion (assay: gp160 induced cell-cell fusion assay (HeLa P4 / CHO-Tat10 cells, β-galactosidase reporter)). Settings: Human immunodeficiency virus 1, HeLaP4, read-out: IC50 against HIV-1 fusion.
Assay type: cell-based
Method: The gp160 induced cell-cell fusion assay uses a HeLa P4 cell line and a CHO-Tat10 cell line.
The HeLa P4 cell line expresses CCR5 and CD4 and has been transfected with HIV-1 LTR-β-Galactosidase. The media for this cell line is Dulbecco modified eagle's medium (D-MEM) (without L-glutamine) containing 10% foetal calf serum (FCS), 2 mM L-glutamine penicillin/streptomycin (Pen/Strep; 100 U/mL penicillin+[…] streptomycin), and 1 μg/ml puromycin.
The CHO cell line is a Tat (transcriptional trans activator)-expressing clone from a CHO JRR17.1 cell line that has been transfected with pTat puro plasmid. The media for this cell line is rich medium for mammalian cell culture originally developed at Roswell Park Memorial Institute RPMI1640 (without L-glutamine) containing 10% FCS, 2 mM L-glutamine, 0.5 mg/ml Hygromycin B and 12 μg/ml puromycin. The CHO JRR17.1 line expresses gp160 (JRFL) and is a clone that has been selected for its ability to fuse with a CCR5/CD4 expressing cell line.
Upon cell fusion, Tat present in the CHO cell is able to transactivate the HIV-1 long terminal repeat (LTR) present in the HeLa cell leading to the expression of the β-Galactosidase enzyme. This expression is then measured using a Fluor Ace™ β-Galactosidase reporter assay kit (Bio-Rad cat no. 170-3150). This kit is a quantitative fluorescent assay that determines the level of expression of β-galactosidase using 4-methylumbelliferul-galactopyranoside (MUG) as substrate. β-Galactosidase hydrolyses the fluorogenic substrate resulting in release of the fluorescent molecule 4-methylumbelliferone (4MU). Fluorescence of 4-methylumbelliferone is then measured on a fluorometer using an excitation wavelength of 360 nm and emission wavelength of 460 nm.
Compounds that inhibit fusion will give rise to a reduced signal and, following solubilisation in an appropriate solvent and dilution in culture medium, a dose-response curve for each compound can be used to calculate IC50 values.

Going from Cc1n[nH]c2cccc(O[C@@H](C)C(=O)N3CCN(C(=O)c4ccccc4)C[C@H]3C)c12 [Example 12] to CC(Oc1cccc2ccccc12)C(=O)N1CCN(C(=O)c2ccccc2)C[C@H]1C (stereo partly drawn) [Example 29], the IC50 rises from 15 nM to 134 nM (8.9-fold). The first is the more potent here.

CC(Oc1ccccc1C(N)=O)C(=O)N1CCN(C(=O)c2ccccc2)C[C@H]1C (stereo partly drawn) [Example 44] was tested, and the IC50 was 825 nM.
